Reference: BigSolDB 2.1

O=C(O)c1ccco1
solubility (mole fraction)
Details | in 1,2-dichloroethane | in MIBK | in acetonitrile | in diisopropyl ether | in methanol | in n-hexane | in toluene
283.15 K | 0.014 | 0.095 | 0.046 | 0.035 | 0.347 | – | 0.005
288.15 K | 0.017 | 0.11 | 0.057 | 0.041 | 0.393 | – | 0.006
293.15 K | 0.023 | 0.122 | 0.064 | 0.048 | 0.428 | – | 0.008
298.15 K | 0.029 | 0.137 | 0.077 | 0.054 | 0.451 | 0.001 | 0.011
303.15 K | 0.035 | 0.154 | 0.093 | 0.061 | 0.48 | 0.001 | 0.013
308.15 K | 0.046 | 0.177 | 0.115 | 0.069 | 0.504 | 0.001 | 0.017
313.15 K | 0.057 | 0.195 | 0.132 | 0.077 | 0.524 | 0.002 | 0.021
318.15 K | 0.068 | 0.211 | 0.155 | 0.087 | 0.551 | 0.002 | 0.027
323.15 K | 0.084 | 0.237 | 0.182 | 0.097 | 0.571 | 0.003 | 0.034
328.15 K | 0.103 | 0.26 | 0.208 | 0.108 | 0.607 | 0.004 | 0.045
333.15 K | 0.126 | 0.286 | 0.242 | 0.121 | 0.643 | 0.005 | 0.056
